Experimental data published in patent US5084453A, “1-carboxy-1-vinyloxyimino aminothiazole cephalosporin derivatives” (priority 1988, dated 1992).
Values after ≈ are worked out from the molar mass of the structure shown. Read-outs that look alike come from different tables or passages of the source.

Assays:
Test in all cases: in vitro antibacterial activity, agar plate dilution method
Type in all cases: cell-based
A. calcoaceticus No. 4 = details: Acinetobacter calcoaceticus, NO.4; 10^6 CFU/ml; Mueller Hinton agar, 37° C., 16 hours; read-out: MIC
Protocol: (§1) Now, the in vitro antibacterial activities of the compounds of the present invention against various microorganisms, were measured by the following agar plate dilution method.
(§2) One platinum loopfull of each test microorganism incubated overnight in Mueller Hinton broth, was inoculated to Mueller Hinton agar (MH agaer). Such culture media containing various antibiotics in various concentrations were prepared. After incubation at 37° C. for 16 hours, the minimum inhibitory concentrations (MIC μg/ml) were measured.

E. cloacae 963 = details: Enterobacter cloacae, 963, 16 h
Protocol: as §1, §2

E. cloacae Nek 39* = details: Enterobacter cloacae, 16 h
Protocol: as §1, §2

E. coli CSH(RE45)* = details: Escherichia coli; 10^6 CFU/ml; β-Lactamase-producing strain; 37° C., 16 hours; read-out: MIC
Protocol: as §1, §2

E. coli CSH2(RK1)* = details: Escherichia coli, 16 h
Protocol: as §1, §2

E. coli GN5482* = details: Escherichia coli, GN5482, 16 h
Protocol: as §1, §2

E. coli NIHJ JC2 = details: Escherichia coli, NIHJJC2; 10^6 CFU/ml; Mueller Hinton agar, 37° C., 16 hours; read-out: MIC
Protocol: as §1, §2

K. oxytoca GN10650* = details: Klebsiella oxytoca, GN10650, 16 h
Protocol: as §1, §2

K. pneumoniae No. 42* = details: Klebsiella pneumoniae, 16 h
Protocol: as §1, §2

K. pneumoniae PC1-602 = details: Klebsiella pneumoniae
Protocol: as §1, §2

M. morganii GN5407* = details: Morganella morganii
Protocol: as §1, §2

P. vulgaris HX-19 = details: Proteus vulgaris
Protocol: as §1, §2

P. vulgaris No. 33* = details: Proteus vulgaris
Protocol: as §1, §2

Ps. aeruginosa AK 109 = details: Pseudomonas aeruginosa
Protocol: as §1, §2

Ps. aeruginosa AKR17 = details: Pseudomonas aeruginosa, AKR17; 10^6 CFU/ml; Mueller Hinton agar, 37° C., 16 hours; read-out: MIC
Protocol: as §1, §2

Ps. aeruginosa IFO3445 = details: Pseudomonas aeruginosa
Protocol: as §1, §2

Ps. cepacia 23 = test system: Ps. cepacia 23
Protocol: as §1, §2

S. aureus 209P NIHJ-JC1 = details: Staphylococcus aureus
Protocol: as §1, §2

S. marcescens IAM 1184 = details: Serratia marcescens
Protocol: as §1, §2

S. marcescens No. 16-2* = details: Serratia marcescens
Protocol: as §1, §2

[1] = PC1602, 10^6 CFU/ml, Mueller Hinton agar, 37° C., 16 hours, read-out: MIC
[2] = IAM1184, 10^6 CFU/ml, Mueller Hinton agar, 37° C., 16 hours, read-out: MIC
[3] = HX19, 10^6 CFU/ml, Mueller Hinton agar, 37° C., 16 hours, read-out: MIC
[4] = AK109, 10^6 CFU/ml, Mueller Hinton agar, 37° C., 16 hours, read-out: MIC
[5] = IFO3445, 10^6 CFU/ml, Mueller Hinton agar, 37° C., 16 hours, read-out: MIC
[6] = 10^6 CFU/ml, β-Lactamase-producing strain, 37° C., 16 hours, read-out: MIC
[7] = Burkholderia cepacia, 23, 10^6 CFU/ml, Mueller Hinton agar, 37° C., 16 hours, read-out: MIC
[8] = 10^6 CFU/ml, Mueller Hinton agar, 37° C., 16 hours, read-out: MIC

SMILES | MIC (A. calcoaceticus No. 4) [µg/mL] | MIC (E. cloacae 963) [µg/mL] | MIC (E. cloacae Nek 39*) [µg/mL] | MIC (E. coli CSH(RE45)*) [µg/mL] | MIC (E. coli CSH2(RK1)*) [µg/mL] | MIC (E. coli GN5482*) [µg/mL] | MIC (E. coli NIHJ JC2) [µg/mL] | MIC (K. oxytoca GN10650*) [µg/mL] | MIC (K. pneumoniae No. 42*) [µg/mL] | MIC (K. pneumoniae PC1-602; [1]) [µg/mL] | MIC (M. morganii GN5407*; GN5407, 16 h) [µg/mL] | MIC (P. vulgaris No. 33*; 16 h) [µg/mL] | MIC (Ps. aeruginosa AKR17) [µg/mL] | MIC (Ps. aeruginosa IFO3445; IFO3445, 16 h) [µg/mL] | MIC (S. aureus 209P NIHJ-JC1; 16 h) [µg/mL] | MIC (S. marcescens IAM 1184; [2]) [µg/mL] | MIC (S. marcescens No. 16-2*; 16 h) [µg/mL] | MIC (P. vulgaris HX-19; [3]) [µg/mL] | MIC (Ps. aeruginosa AK 109; [4]) [µg/mL] | MIC (Ps. cepacia 23; [7]) [µg/mL] | also measured
C=C(O/N=C(\C(=O)N[C@@H]1C(=O)N2C(C(=O)[O-])=C(C[n+]3cccc4c3CCC4)CS[C@H]12)c1csc(N)n1)C(=O)O [Example 2, 7β-[2-(2-aminothiazol-4-yl)-2-(1-carboxy-1-vinyloxyimino)acetamido]-3-(2,3-cychlopenteno-pyridinio)methyl-3-cephem-4-carboxylate (syn-isomer)] | 3.12 (≈ 5.47 µM) | 0.05 (≈ 0.0876 µM) | 0.2 (≈ 0.351 µM) | 0.78 (≈ 1.37 µM) | 0.025 (≈ 0.0438 µM) | 0.1 (≈ 0.175 µM) | 0.05 (≈ 0.0876 µM) | 0.1 (≈ 0.175 µM) | 0.39 (≈ 0.683 µM) | 0.0125 (≈ 0.0219 µM) | 0.025 (≈ 0.0438 µM) | 0.025 (≈ 0.0438 µM) | 100 (≈ 175 µM) | 1.56 (≈ 2.73 µM) | 1.56 (≈ 2.73 µM) | 0.0125 (≈ 0.0219 µM) | 0.78 (≈ 1.37 µM) |  |  |  | MIC (P. vulgaris HX-19; HX19, 16 h): 0.025 µg/mL (≈ 0.0438 µM); MIC (Ps. aeruginosa AK 109; AK109, 16 h): 1.56 µg/mL (≈ 2.73 µM); MIC (Ps. cepacia 23; Burkholderia cepacia, 23, 16 h): 0.39 µg/mL (≈ 0.683 µM)
CO/N=C(\C(=O)N[C@@H]1C(=O)N2C(C(=O)O)=C(COC(C)=O)CS[C@H]12)c1csc(N)n1 [Cefotaxime, reference compound] | 25 (≈ 54.9 µM) | 0.05 (≈ 0.11 µM) | 1.56 (≈ 3.43 µM) | 0.1 (≈ 0.22 µM) | 0.0125 (≈ 0.0274 µM) | 0.39 (≈ 0.856 µM) | 0.05 (≈ 0.11 µM) | 0.39 (≈ 0.856 µM) | 0.05 (≈ 0.11 µM) | < 0.006 | 0.05 (≈ 0.11 µM) | 0.025 (≈ 0.0549 µM) | > 100 |  | 1.56 (≈ 3.43 µM) |  | 6.25 (≈ 13.7 µM) | < 0.006 | 12.5 (≈ 27.4 µM) |  | MIC (Ps. aeruginosa IFO3445; [5]): 25 µg/mL (≈ 54.9 µM); MIC (Ps. cepacia 23; Burkholderia cepacia, 23, 16 h): 6.25 µg/mL (≈ 13.7 µM); MIC (S. marcescens IAM 1184; IAM1184, 16 h): 0.0125 µg/mL (≈ 0.0274 µM)
C=C(O/N=C(\C(=O)N[C@@H]1C(=O)N2C(C(=O)O)=C(CSc3nnc(C)s3)CS[C@H]12)c1csc(N)n1)C(=O)O [Example 18, disodium 7β-[2-(2-aminothiazol-4-yl)-2-11-carboxylato-1-vinyloxyimino)acetamido]-3-(5-methyl-1,3,4-thiadiazol-2-yl)thiomethyl-3-cephem-4-carboxylate (syn-isomer)] | 100 | 0.2 | 0.78 | 0.1 | 0.025 | 0.39 | 0.2 | 0.2 | 0.39 |  |  |  | > 100 |  |  |  |  | < 0.006 | 12.5 | 3.12 | MIC (K. pneumoniae PC1-602; PC1602, 16 h): 0.025 µg/mL; MIC (M. morganii GN5407*; GN5407, 10^6 CFU/ml, β-Lactamase-producing strain, 37° C., 16 hours, read-out: MIC): 0.0125 µg/mL; MIC (P. vulgaris No. 33*; [6]): < 0.006 µg/mL; MIC (Ps. aeruginosa IFO3445; [5]): 12.5 µg/mL; MIC (S. aureus 209P NIHJ-JC1; [8]): 3.12 µg/mL; MIC (S. marcescens IAM 1184; IAM1184, 16 h): 0.025 µg/mL; MIC (S. marcescens No. 16-2*; [6]): 3.12 µg/mL
C=C(O/N=C(\C(=O)N[C@@H]1C(=O)N2C(C(=O)[O-])=C(C[n+]3ccc(C(N)=O)cc3)CS[C@H]12)c1csc(N)n1)C(=O)O [Example 6, 7β-[2-(2-aminothiazol-4-yl)-2-(1-carboxy-1-vinyloxyimino)acetamido]-3-(4-carbamoyl-1-pyridinio)methyl-3-cephem-4-carboxylate (syn-isomer)] | 12.5 (≈ 21.8 µM) | 0.05 (≈ 0.0872 µM) | 1.56 (≈ 2.72 µM) | 0.025 (≈ 0.0436 µM) | 0.025 (≈ 0.0436 µM) | 0.39 (≈ 0.68 µM) | 0.05 (≈ 0.0872 µM) | 0.2 (≈ 0.349 µM) | 0.1 (≈ 0.174 µM) | < 0.006 | 0.025 (≈ 0.0436 µM) |  | > 100 | 6.25 (≈ 10.9 µM) | 1.56 (≈ 2.72 µM) | < 0.006 |  | 0.0125 (≈ 0.0218 µM) | 12.5 (≈ 21.8 µM) | 3.12 (≈ 5.44 µM) | MIC (P. vulgaris No. 33*; [6]): 0.0125 µg/mL (≈ 0.0218 µM); MIC (S. marcescens No. 16-2*; [6]): 3.12 µg/mL (≈ 5.44 µM)
C=C(O/N=C(\C(=O)N[C@@H]1C(=O)N2C(C(=O)[O-])=C(C[n+]3cccc(N)c3)CS[C@H]12)c1csc(N)n1)C(=O)O [Example 9, sodium 7β-[2-(2-aminothiazol-4-yl)-2-(1-carboxylato-1-vinyloxyimino)acetamido]-3-(3-amino-1-5 pyridinio)methyl 3-cephem-4-carboxylate (syn-isomer)] | 3.12 | 0.05 | 0.78 | 0.0125 | 0.025 | 0.2 | 0.025 | 0.1 | 0.1 | < 0.006 | 0.39 | 0.0125 | > 100 | 0.78 |  | < 0.006 | 1.56 |  | 3.12 | 3.12 | MIC (P. vulgaris HX-19; HX19, 16 h): 0.0125 µg/mL; MIC (S. aureus 209P NIHJ-JC1; [8]): 3.12 µg/mL
